Assay results reported in patent publication US11021444B2, “Antiviral compounds” (priority 2013, dated 2021).
Read-outs that look alike come from different tables or passages of the source.

Tests used:
recombinant RSV complex = recombinant RSV complex (Human respiratory syncytial virus A, UniProt P28887); experiment: RSV Polymerase Inhibition Assay; format: biochemical
Method: Standard RSV polymerase assays were conducted in the presence of 10 nM recombinant RSV complex in a reaction buffer containing Tris-HCl pH7.5, 6 mM MgCl2, and other additives and substrates including RNA oligonucleotides and radionucleotides. Standard reactions were incubated in 96-well plate format for 2 h at 30° C., in the presence of increasing concentration of inhibitor. The reaction was stopped with 90 μL of 0.1M EDTA, and the reaction product was transferred to a “reading” 96-well plate. After washing of the plate, radiolabeled RNA products were detected according to standard procedures with a Trilux Topcount scintillation counter.

[1] = test system: Respiratory Syncytial Virus (RSV) long strain; experiment: microbe, parasite or virus in culture; format: cell-based; conditions: human respiratory syncytial virus, Tables A and B list compounds by EC50 band
Method: (§1) CPE reduction assays are performed as described by Sidwell and Huffman et al., Appl. Microbiol. (1971) 22(5):797-801 with slight modifications. HEp-2 cells (ATCC #, CCL-23) are seeded at a density of 1,500 cells/30 μl/well into the 384-well cell plate(s) (Corning #3701) one day prior to the assay. Compounds are added into 384-well cell plates by Labcyte POD 810 Plate Assembler system. Each of the test compounds is provided to duplicate wells of a 384-well cell plate at final concentrations starting from 100 μM or 1 μM using 1/3 stepwise dilutions for 9 points. Quick-thaw Respiratory Syncytial Virus (RSV) long strain (ATCC #VR-26) stock in a 37° C. water bath. Place on ice until ready to use. Viruses are diluted to the concentration of 100 TCID50/30 μL with medium and 30 μl diluted RSV are added into related wells of 384-well cell plates. For each plate, sixteen wells are set aside as uninfected, untreated cell controls (CC), and nine wells per test plate receive virus only as a control for virus replication (VC). The final DMSO concentration of all wells is 1%. Place the plates at 37° C., 5% CO2 for 5 days.
After 5 days incubation, observe the CPE of cells in all wells. […] Six μl of cell counting kit-8 reagent (CCK-8, Dojindo Molecular Technologies Inc., CK04-20) are added to each well, which allows colorimetric assays to determine the number of viable cells through the dehydrogenase activity detection. After 3-4 hour incubation, the absorbance of each well is measured with a spectrophotometric plate reader at 450 nm wavelength, using a 630 nm filter as background according to manufacturer's instruction.

[2] = Cytotoxicity Determination (CCK-8, without addition of virus); format: cell-based; conditions: human, 50% cytotoxicity concentration (CC50)
Method: as §1
In order to determine the compound cytotoxicity, in parallel, each of the compounds is applied to duplicate wells in a 384-well cell plate at serial final concentrations starting from 100 μM using 1/2 stepwise dilutions for 7 points without addition of virus. Incubate the cells at 37° C., 5% CO2 for 5 days. Add 6 μL CCK-8 into each well and incubate in a CO2 incubator at 37° C. for 3-4 hours.

[3] = HEp-2, 120 h, read-out: 50% effective concentration (EC50), HEp-2 cells infected with RSV long strain, 5 days, CCK-8 readout

Chain of recombinant RSV complex (P28887 whole entry): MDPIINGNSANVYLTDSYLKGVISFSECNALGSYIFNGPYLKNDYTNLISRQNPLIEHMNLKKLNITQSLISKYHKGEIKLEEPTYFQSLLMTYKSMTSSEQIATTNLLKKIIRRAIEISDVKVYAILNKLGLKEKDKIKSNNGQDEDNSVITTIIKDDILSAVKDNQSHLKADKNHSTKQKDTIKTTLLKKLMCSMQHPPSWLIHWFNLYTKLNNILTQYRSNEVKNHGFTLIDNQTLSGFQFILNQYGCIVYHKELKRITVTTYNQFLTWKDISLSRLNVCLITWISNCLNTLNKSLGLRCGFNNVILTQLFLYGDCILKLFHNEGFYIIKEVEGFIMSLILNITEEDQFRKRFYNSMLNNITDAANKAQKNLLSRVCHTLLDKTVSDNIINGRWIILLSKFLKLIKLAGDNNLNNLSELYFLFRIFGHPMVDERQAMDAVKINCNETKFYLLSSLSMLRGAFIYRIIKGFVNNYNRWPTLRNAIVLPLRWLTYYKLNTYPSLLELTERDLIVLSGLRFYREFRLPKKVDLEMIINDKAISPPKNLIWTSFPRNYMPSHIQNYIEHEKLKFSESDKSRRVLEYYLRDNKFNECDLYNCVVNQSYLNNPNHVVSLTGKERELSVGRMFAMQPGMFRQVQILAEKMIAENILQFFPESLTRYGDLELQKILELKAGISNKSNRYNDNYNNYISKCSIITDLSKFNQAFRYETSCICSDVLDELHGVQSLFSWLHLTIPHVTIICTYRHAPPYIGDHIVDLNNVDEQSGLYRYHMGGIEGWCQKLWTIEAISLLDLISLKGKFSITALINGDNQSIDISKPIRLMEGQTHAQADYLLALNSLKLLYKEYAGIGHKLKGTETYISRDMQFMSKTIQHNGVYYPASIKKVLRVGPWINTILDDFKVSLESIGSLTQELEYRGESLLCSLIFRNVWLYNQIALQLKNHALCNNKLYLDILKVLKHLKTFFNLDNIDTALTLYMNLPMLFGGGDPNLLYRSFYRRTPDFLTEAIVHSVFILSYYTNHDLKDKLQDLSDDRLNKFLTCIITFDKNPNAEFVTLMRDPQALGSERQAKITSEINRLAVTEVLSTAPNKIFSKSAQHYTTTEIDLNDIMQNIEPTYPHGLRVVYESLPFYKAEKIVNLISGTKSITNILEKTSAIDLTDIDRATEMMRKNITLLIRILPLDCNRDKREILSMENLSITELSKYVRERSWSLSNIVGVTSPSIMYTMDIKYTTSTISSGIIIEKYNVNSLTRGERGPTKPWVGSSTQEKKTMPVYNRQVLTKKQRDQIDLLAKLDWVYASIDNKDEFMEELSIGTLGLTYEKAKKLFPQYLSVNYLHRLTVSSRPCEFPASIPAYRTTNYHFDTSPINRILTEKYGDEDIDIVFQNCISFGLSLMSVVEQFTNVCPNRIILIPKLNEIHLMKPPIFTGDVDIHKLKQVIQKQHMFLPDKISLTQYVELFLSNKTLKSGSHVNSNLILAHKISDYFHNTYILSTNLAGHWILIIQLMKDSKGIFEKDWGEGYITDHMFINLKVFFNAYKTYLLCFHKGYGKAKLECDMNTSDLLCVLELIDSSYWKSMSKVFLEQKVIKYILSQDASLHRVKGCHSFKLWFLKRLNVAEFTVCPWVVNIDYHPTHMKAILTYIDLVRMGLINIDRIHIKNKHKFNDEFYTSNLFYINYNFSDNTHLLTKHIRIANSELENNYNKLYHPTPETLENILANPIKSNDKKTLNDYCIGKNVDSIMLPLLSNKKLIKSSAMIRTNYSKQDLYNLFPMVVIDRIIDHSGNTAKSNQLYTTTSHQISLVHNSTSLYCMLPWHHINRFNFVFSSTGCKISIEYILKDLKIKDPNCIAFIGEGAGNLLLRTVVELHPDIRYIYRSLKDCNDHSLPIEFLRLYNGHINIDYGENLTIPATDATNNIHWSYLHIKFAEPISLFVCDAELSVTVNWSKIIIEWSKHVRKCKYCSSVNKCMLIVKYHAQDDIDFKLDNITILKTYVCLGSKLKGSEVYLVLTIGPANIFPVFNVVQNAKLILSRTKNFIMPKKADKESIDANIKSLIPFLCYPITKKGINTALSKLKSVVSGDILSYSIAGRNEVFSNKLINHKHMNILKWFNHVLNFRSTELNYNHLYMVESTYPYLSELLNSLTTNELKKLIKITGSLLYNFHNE
Chain of recombinant RSV complex (P03421 whole entry, further chain): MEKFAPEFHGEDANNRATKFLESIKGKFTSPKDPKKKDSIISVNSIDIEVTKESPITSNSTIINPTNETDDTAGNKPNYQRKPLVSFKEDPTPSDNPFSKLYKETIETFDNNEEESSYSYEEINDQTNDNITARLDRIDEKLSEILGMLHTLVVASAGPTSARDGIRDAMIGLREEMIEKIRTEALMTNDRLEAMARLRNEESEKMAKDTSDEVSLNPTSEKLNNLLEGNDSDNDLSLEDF

SMILES	IC50 (recombinant RSV complex)	CC50 at 5 days [2]	also measured
COc1cc(C(=O)NCC(O)(c2ccc(OC)c(-c3ccc(F)c(Cl)c3)n2)C(F)(F)F)ccc1OC1CCN(C)C1=O (stereo not shown) [Compound 350]	< 10 µM	–	–
COc1cc(C(=O)NCC(O)(c2cc(C(C)(C)N)cc(-c3ccc(F)cc3)n2)C(F)(F)F)ccc1OCC(F)(F)F (stereo not shown) [Compound 573]	< 1 µM	–	–
CNC(=O)COc1ccc(C(=O)NCC(O)(c2ccc(OC)c(-c3ccc(F)c(Cl)c3)n2)C(F)(F)F)cc1OC (stereo not shown) [Compound 402]	< 1 µM	–	–
CC(C)(N)c1cc(-c2ccc(F)c(Cl)c2)nc(C(O)(CNC(=O)c2coc(Cl)n2)C(F)(F)F)c1 (stereo not shown) [Compound 478]	< 10 µM	–	EC50 [1, 3]: 1 to 50 µM
COc1cc(C(=O)NCC(O)(CN2CCCCC2)c2ccc(OC)c(-c3ccc(F)c(Cl)c3)n2)ccc1OCCO (stereo not shown) [Compound 188]	< 10 µM	–	–
CC(C)(N)c1cc(-c2ccc(F)c(Cl)c2)nc(C(O)(CNC(=O)c2csc(Cl)n2)C(F)(F)F)c1 (stereo not shown) [Compound 280]	< 1 µM	–	EC50 ([1]; 120 h, read-out: 50% effective concentration (EC50), HEp-2 cells infected with RSV long strain, 5 days, CCK-8 readout): 1 to 50 µM
COc1cc(C(=O)NCC(O)(c2cc(C(C)(C)NC(=O)OCc3ccccc3)cc(-c3ccc(F)c(Cl)c3)n2)C(F)(F)F)ccc1OC1CC1 (stereo not shown) [Compound 399]	< 1 µM	–	–
COc1cc(C(=O)NCC(O)(CN(CCN)CC(=O)O)c2ccc(OC)c(-c3ccc(F)c(Cl)c3)n2)ccc1OCCO (stereo not shown) [Compound 183]	< 1 µM	> 100 µM	–
CC(C)(N)c1cc(-c2ccc(F)c(Cl)c2)nc(C(O)(CNC(=O)c2cnc(Cl)s2)C(F)(F)F)c1 (stereo not shown) [Compound 276]	< 1 µM	–	EC50 [1, 3]: 1 to 50 µM
COc1cc(C(=O)NCC(O)(c2cc(CCN)cc(-c3ccc(F)c(Cl)c3)n2)C(F)(F)F)ccc1OC1CC1 (stereo not shown) [Compound 522]	< 1 µM	–	–
COc1cc(C(=O)NCC(C)(O)c2nc(-c3ccc(F)c(Cl)c3)ccc2F)ccc1OCC(N)=O (stereo not shown) [Compound 377]	< 10 µM	–	–
COc1cc(C(=O)NCC(O)(Cn2ccnc2)c2cc3c(c(-c4ccc(F)c(Cl)c4)n2)OCC3(C)C)ccc1OCCO (stereo not shown) [Compound 225]	< 1 µM	–	–
COc1cc(C(=O)NCC(O)(c2ccc(OC)c(-c3cnc(Cl)s3)n2)C(F)(F)F)ccc1OCCO (stereo not shown) [Compound 468]	–	10 to 100 µM	–
COc1cc(C(=O)NCC(O)(c2cc(C(C)(C)N)cc(-c3ccc(F)c(Cl)c3)n2)C(F)(F)F)ccc1OCC(=O)NS(C)(=O)=O (stereo not shown) [Compound 618]	< 1 µM	–	–
COc1cc(C(=O)NCC(O)(c2cc3c(c(-c4ccc(F)cc4)n2)OCC3(C)N)C(F)(F)F)ccc1OCS(N)(=O)=O (stereo not shown) [Compound 648]	< 1 µM	–	–
COc1cc(C(=O)NCC(O)(c2cc(C(C)(C)N)cc(-c3ccc(F)c(Cl)c3)n2)C(F)(F)F)ccc1OCc1nnn[nH]1 (stereo not shown) [Compound 616]	< 10 µM	> 100 µM	–
COc1cc(C(=O)NCC(O)(c2cc(C(C)(N)CF)cc(-c3ccc(F)cc3)n2)C(F)(F)F)ccc1OCCO (stereo not shown) [Compound 676]	< 1 µM	–	–
COc1cc(C(=O)NCC(C)(O)c2ccc(OC)c(-c3ccc(F)c(Cl)c3)n2)ccc1OCCN (stereo not shown) [Compound 382]	< 100 µM	–	–
COc1cc(C(=O)NCC(O)(c2cc(C(C)(C)N)cc(-c3ccc(C#N)cc3)n2)C(F)(F)F)ccc1OCC(N)=O (stereo not shown) [Compound 625]	< 1 µM	> 100 µM	–
COc1cc(C(=O)NCC(O)(c2cc3c(c(-c4ccc(C(N)=O)cc4)n2)OCC3(C)N)C(F)(F)F)ccc1OCCO (stereo not shown) [Compound 674]	–	> 100 µM	–
COc1cc(C(=O)NCC(O)(c2cc(CCCN)cc(-c3ccc(F)c(Cl)c3)n2)C(F)(F)F)ccc1OC1CC1 (stereo not shown) [Compound 591]	< 1 µM	–	EC50 [1, 3]: < 1 µM
COc1ccc(-c2cc(C(C)(C)N)cc(C(O)(CNC(=O)c3ccc(OCCO)c(OC)c3)C(F)(F)F)n2)cn1 (stereo not shown) [Compound 660]	< 10 µM	–	–
COc1cc(C(=O)NCC(O)(c2ccc(OC)c(-c3ccc(F)c(Cl)c3)n2)C2CC2)ccc1OCc1ncnn1C (stereo not shown) [Compound 352]	< 10 µM	–	–
COc1cc(C(=O)NCC(C)(O)c2cccc(-c3ccc(F)c(Cl)c3)c2)ccc1OCCO (stereo not shown) [Compound 439]	< 100 µM	> 100 µM	–
CC(C)(N)c1cc(-c2ccc(F)cc2)nc(C(O)(CNC(=O)c2cnc[nH]2)C(F)(F)F)c1 (stereo not shown) [Compound 613]	< 10 µM	> 100 µM	–

SMILES	IC50 (recombinant RSV complex)	CC50 at 5 days [2]	also measured
COc1cc(C(=O)NCC(O)(c2cc(CNC(C)=O)cc(-c3ccc(F)cc3)n2)C(F)(F)F)ccc1OC1CC1 (stereo not shown) [Compound 329]	< 1 µM	–	–
COc1cc(C(=O)NCC(C)(O)c2nc(-c3ccc(F)c(Cl)c3)c(C)n2C)ccc1OCCF (stereo not shown) [Compound 144]	< 100 µM	–	–
CC1(N)COc2c1cc(C(O)(CNC(=O)c1ccc(OC3CC3)c(CO)c1)C(F)(F)F)nc2-c1ccc(F)cc1 (stereo not shown) [Compound 481]	< 1 µM	–	–
COc1cc(C(=O)NCC(O)(c2ccc(OCCN(C)C)c(-c3ccc(F)cc3)n2)C(F)(F)F)ccc1OC1CC1 (stereo not shown) [Compound 480]	< 10 µM	–	–
COc1cc(C(=O)NCC(O)(c2cc(C(C)(N)C(F)F)cc(-c3ccc(F)cc3)n2)C(F)(F)F)ccc1OCCO (stereo not shown) [Compound 669]	< 1 µM	–	–
COc1cc(C(=O)NCC(O)(c2cc3c(c(-c4ccc(Cl)nc4)n2)OCC3(C)N)C(F)(F)F)ccc1OC1CC1 (stereo not shown) [Compound 668]	< 1 µM	–	–
COc1cc(C(=O)NCC(O)c2ccc(OC)c(-c3ccc(F)c(Cl)c3)n2)ccc1OC(F)F (stereo not shown) [Compound 153]	< 10 µM	–	–
CC(C)(N)c1cc(-c2ccc(F)c(Cl)c2)nc(C(O)(CNC(=O)c2ccc3c(c2)OCO3)C(F)(F)F)c1 (stereo not shown) [Compound 274]	< 1 µM	–	EC50 [1, 3]: < 1 µM
COc1cc(C(=O)NCC(C)(O)c2ccc(OC)c(-c3ccc(F)c(Cl)c3)n2)ccc1-c1cccnc1 (stereo not shown) [Compound 146]	< 10 µM	–	–
COc1cc(C(=O)NCC(O)(c2ccc(OC)c(C3COc4c(F)cccc43)n2)C2CC2)ccc1OCCO (stereo not shown) [Compound 427]	< 100 µM	> 100 µM	–
COc1cc(C(=O)NCC(C)(O)c2ccc(OC)c(-c3ccc(F)c(Cl)c3)n2)ccc1N1CCCC1=O (stereo not shown) [Compound 151]	< 10 µM	–	–
COc1cc(C(=O)NCC2(c3ccc(OC)c(-c4ccc(F)c(Cl)c4)n3)CNC(=O)O2)ccc1OCCO (stereo not shown) [Compound 180]	< 100 µM	> 100 µM	–
COc1cc(C(=O)NCC(O)(c2cc3c(c(-c4ccc(C)nc4)n2)OCC3(C)N)C(F)(F)F)ccc1OCCO (stereo not shown) [Compound 671]	–	> 100 µM	–
COc1cc(C(=O)NCC(O)(c2cc3c(c(-c4ccnc(C)c4)n2)OCC3(C)N)C(F)(F)F)ccc1OCCO (stereo not shown) [Compound 670]	–	> 100 µM	–
COc1cc(-c2csc3c(F)cccc23)nc(C(O)CNC(=O)c2cc(OC)c(OC)cc2O)c1 (stereo not shown) [Compound 110]	–	10 to 100 µM	–
COc1cc(C(=O)NCC(C)(O)c2ccc(OC)c(-c3ccc(F)c(Cl)c3)n2)ccc1OCC#N (stereo not shown) [Compound 367]	< 1 µM	–	–
COc1cc(C(=O)NCC(C)(O)c2csc(-c3ccc(F)c(Cl)c3)n2)ccc1OCCO (stereo not shown) [Compound 441]	< 100 µM	> 100 µM	–
COc1cc(C(=O)NCC(O)(c2cc3c(c(-c4ccc(F)c(Cl)c4)n2)OCC3(C)C)C(F)(F)F)ccc1OC1CCNC1=O (stereo not shown) [Compound 203]	< 10 µM	–	–
CCOc1ccc(C(=O)NCC(O)c2ccc(OC)c(-c3ccc(F)c(Cl)c3)n2)cc1OC (stereo not shown) [Compound 154]	< 10 µM	–	–
CCOC(=O)COc1ccc(C(=O)NCC(O)(c2cc(C(C)(C)N)cc(-c3ccc(F)c(Cl)c3)n2)C(F)(F)F)cc1OC (stereo not shown) [Compound 617]	< 1 µM	10 to 100 µM	–
COc1cc(C(=O)NCC(O)(c2cc3c(c(-c4ccc(F)cc4)n2)OCC32CCCN2)C(F)(F)F)ccc1OCCO (stereo not shown) [Compound 652]	< 1 µM	–	–
COc1cc(C(=O)NCC(O)(c2ccc(OC)c(-c3ccc(F)c(Cl)c3)n2)C(F)(F)F)ccc1OC1CC1 (single isomer, unassigned) [Compound 247]	< 10 µM	> 100 µM	–
COc1cc(C(=O)NCC(O)(c2cc(C(C)(C)N)cc(-c3ccc(C(F)(F)F)cc3)n2)C(F)(F)F)ccc1OCCO (stereo not shown) [Compound 658]	< 1 µM	–	–
COc1ccc(C(O)(CNC(=O)c2ccc3ncccc3c2OC)C(F)(F)F)nc1-c1ccc(F)c(Cl)c1 (stereo not shown) [Compound 269]	–	10 to 100 µM	–
